From patent EP0432983A2 (priority 1989, dated 1991)
In brackets after ≈: the same amount, converted by molar mass.

Experiments:
[1] = system: CV-1 (monkey kidney fibroblast); assay: Cytotoxicity assay, CV-1; assay type: cell-based
Protocol: (§1) With compounds AH-3, AH-4 and AH-5, four general anti-tumour assays and two cytotoxicity assays were performed. Current screening protocols were employed using test substance diluted as above and at varying concentrations. Tests were performed against the tumour cells P-388 (mouse DBA/2 lymphoid neoplasm), A-549 (human lung carcinoma), HT-29 (human colon carcinoma) and MCF-7 (human breast carcinoma) and for the cytotoxicity assays against CV-1 (monkey kidney fibroblast) and BHK (Hamster kidney fibroblast).
(§2) Scoring is performed as follows: (-) no activity - the number of cells is equal to the control of growth, 0-40% cell inhibition (+) low activity - numbers of cells are reduced by approx 50-60% (++) good activity - numbers of cells are reduced by approx 70-90% (+++) very good activity - there is 100% cell inhibition [(+) is the approximate IC₅₀]

[2] = system: HT-29 (human colon carcinoma); assay: General anti-tumour assay, HT-29; assay type: cell-based
Protocol: as §1, §2

[3] = system: P-388 (mouse DBA/2 lymphoid neoplasm); assay: General anti-tumour assay, P-388; assay type: cell-based
Protocol: as §1, §2

[4] = system: BHK (Hamster kidney fibroblast); assay: Cytotoxicity assay, BHK; assay type: cell-based
Protocol: as §1, §2

[5] = system: HSV-1 (herpes simplex virus, type 1); assay: General anti-viral assay, HSV-1 in CV-1 cells (plaque reduction); assay type: cell-based; conditions: Human alphaherpesvirus 1; CV-1/ HSV-1; read-out: IC50 µg/ml approx
[6] = system: VSV (Vesicular Stomatitis Virus); assay: microbe, parasite or virus in culture; assay type: cell-based; conditions: BHK, read-out: IC50 µg/ml approx
[7] = system: MCF-7 (human breast carcinoma); assay: General anti-tumour assay, MCF-7; assay type: cell-based
Protocol: as §1, §2

[8] = system: A-549 (human lung carcinoma); assay: General anti-tumour assay, A-549; assay type: cell-based
Protocol: as §1, §2

Compound: CC(C)=CC1CC(C)C2CCC(C)c3c4c(c(C)c1c32)OCO4 (stereo not drawn) [AH-5, Helioporin E]
- activity (cell inhibition) ([1]; CV-1, TEST CONC (µg) 0.2): - ((-) no activity - the number of cells is equal to the control of growth, 0-40% cell inhibition)
- activity (cell inhibition) ([1]; CV-1, TEST CONC (µg) 0.5): - ((-) no activity - the number of cells is equal to the control of growth, 0-40% cell inhibition)
- activity (cell inhibition) ([1]; CV-1, TEST CONC (µg) 1): - ((-) no activity - the number of cells is equal to the control of growth, 0-40% cell inhibition)
- activity (cell inhibition) ([1]; CV-1, TEST CONC (µg) 2): - ((-) no activity - the number of cells is equal to the control of growth, 0-40% cell inhibition)
- activity (cell inhibition) ([1]; CV-1, TEST CONC (µg) 5): - ((-) no activity - the number of cells is equal to the control of growth, 0-40% cell inhibition)
- activity (cell inhibition) ([1]; CV-1, TEST CONC (µg) 10): - ((-) no activity - the number of cells is equal to the control of growth, 0-40% cell inhibition)
- activity (cell inhibition) ([1]; CV-1, TEST CONC (µg) 20): ++ ((++) good activity - numbers of cells are reduced by approx 70-90%)
- IC50 ([1]; Primates, CV-1, read-out: IC50 µg/ml approx): 10 to 20 µg/mL (≈ 32 to 64 µM)
- activity (cell inhibition) ([2]; HT-29, TEST CONC (µg) 0.2): - ((-) no activity - the number of cells is equal to the control of growth, 0-40% cell inhibition)
- activity (cell inhibition) ([2]; HT-29, TEST CONC (µg) 0.5): - ((-) no activity - the number of cells is equal to the control of growth, 0-40% cell inhibition)
- activity (cell inhibition) ([2]; HT-29, TEST CONC (µg) 1): - ((-) no activity - the number of cells is equal to the control of growth, 0-40% cell inhibition)
- activity (cell inhibition) ([2]; HT-29, TEST CONC (µg) 2): - ((-) no activity - the number of cells is equal to the control of growth, 0-40% cell inhibition)
- activity (cell inhibition) ([2]; HT-29, TEST CONC (µg) 5): + ((+) low activity - numbers of cells are reduced by approx 50-60%)
- activity (cell inhibition) ([2]; HT-29, TEST CONC (µg) 10): ++ ((++) good activity - numbers of cells are reduced by approx 70-90%)
- activity (cell inhibition) ([2]; HT-29, TEST CONC (µg) 20): +++ ((+++) very good activity - there is 100% cell inhibition)
- IC50 ([2]; Homo sapiens, HT-29, read-out: IC50 µg/ml approx): ~5 µg/mL (≈ 16 µM)
- IC50 ([3]; Mus musculus, P388, P-388, read-out: IC50 µg/ml approx): 5 to 10 µg/mL (≈ 16 to 32 µM)
- activity (cell inhibition) ([3]; P-388, TEST CONC (µg) 0.2): - ((-) no activity - the number of cells is equal to the control of growth, 0-40% cell inhibition)
- activity (cell inhibition) ([3]; P-388, TEST CONC (µg) 0.5): - ((-) no activity - the number of cells is equal to the control of growth, 0-40% cell inhibition)
- activity (cell inhibition) ([3]; P-388, TEST CONC (µg) 1): - ((-) no activity - the number of cells is equal to the control of growth, 0-40% cell inhibition)
- activity (cell inhibition) ([3]; P-388, TEST CONC (µg) 2): - ((-) no activity - the number of cells is equal to the control of growth, 0-40% cell inhibition)
- activity (cell inhibition) ([3]; P-388, TEST CONC (µg) 5): - ((-) no activity - the number of cells is equal to the control of growth, 0-40% cell inhibition)
- activity (cell inhibition) ([3]; P-388, TEST CONC (µg) 10): ++ ((++) good activity - numbers of cells are reduced by approx 70-90%)
- activity (cell inhibition) ([3]; P-388, TEST CONC (µg) 20): ++ ((++) good activity - numbers of cells are reduced by approx 70-90%)
- IC50 ([4]; Mesocricetus auratus, read-out: IC50 µg/ml approx): ~5 µg/mL (≈ 16 µM)
- activity (cell inhibition) ([4]; TEST CONC (µg) 0.2): - ((-) no activity - the number of cells is equal to the control of growth, 0-40% cell inhibition)
- activity (cell inhibition) ([4]; TEST CONC (µg) 0.5): - ((-) no activity - the number of cells is equal to the control of growth, 0-40% cell inhibition)
- activity (cell inhibition) ([4]; TEST CONC (µg) 1): - ((-) no activity - the number of cells is equal to the control of growth, 0-40% cell inhibition)
- activity (cell inhibition) ([4]; TEST CONC (µg) 2): - ((-) no activity - the number of cells is equal to the control of growth, 0-40% cell inhibition)
- activity (cell inhibition) ([4]; TEST CONC (µg) 5): + ((+) low activity - numbers of cells are reduced by approx 50-60%)
- activity (cell inhibition) ([4]; TEST CONC (µg) 10): +++ ((+++) very good activity - there is 100% cell inhibition)
- activity (cell inhibition) ([4]; TEST CONC (µg) 20): +++ ((+++) very good activity - there is 100% cell inhibition)
- IC50 [5]: > 40 µg/mL
- cytotoxicity (inhibition zone on the cell sheet) (BHK cells): 0-
- IC50 [6]: > 40 µg/mL
- IC50 ([7]; Homo sapiens, MCF7, MCF-7, read-out: IC50 µg/ml approx): ~10 µg/mL (≈ 32 µM)
- activity (cell inhibition) ([7]; MCF-7, TEST CONC (µg) 0.2): - ((-) no activity - the number of cells is equal to the control of growth, 0-40% cell inhibition)
- activity (cell inhibition) ([7]; MCF-7, TEST CONC (µg) 0.5): - ((-) no activity - the number of cells is equal to the control of growth, 0-40% cell inhibition)
- activity (cell inhibition) ([7]; MCF-7, TEST CONC (µg) 1): - ((-) no activity - the number of cells is equal to the control of growth, 0-40% cell inhibition)
- activity (cell inhibition) ([7]; MCF-7, TEST CONC (µg) 2): - ((-) no activity - the number of cells is equal to the control of growth, 0-40% cell inhibition)
- activity (cell inhibition) ([7]; MCF-7, TEST CONC (µg) 5): - ((-) no activity - the number of cells is equal to the control of growth, 0-40% cell inhibition)
- activity (cell inhibition) ([7]; MCF-7, TEST CONC (µg) 10): + ((+) low activity - numbers of cells are reduced by approx 50-60%)
- activity (cell inhibition) ([7]; MCF-7, TEST CONC (µg) 20): +++ ((+++) very good activity - there is 100% cell inhibition)
- activity (cell inhibition) ([8]; A-549, TEST CONC (µg) 0.2): - ((-) no activity - the number of cells is equal to the control of growth, 0-40% cell inhibition)
- activity (cell inhibition) ([8]; A-549, TEST CONC (µg) 0.5): - ((-) no activity - the number of cells is equal to the control of growth, 0-40% cell inhibition)
- activity (cell inhibition) ([8]; A-549, TEST CONC (µg) 1): - ((-) no activity - the number of cells is equal to the control of growth, 0-40% cell inhibition)
- activity (cell inhibition) ([8]; A-549, TEST CONC (µg) 2): - ((-) no activity - the number of cells is equal to the control of growth, 0-40% cell inhibition)
- activity (cell inhibition) ([8]; A-549, TEST CONC (µg) 5): - ((-) no activity - the number of cells is equal to the control of growth, 0-40% cell inhibition)
- activity (cell inhibition) ([8]; A-549, TEST CONC (µg) 10): - ((-) no activity - the number of cells is equal to the control of growth, 0-40% cell inhibition)
- activity (cell inhibition) ([8]; A-549, TEST CONC (µg) 20): - ((-) no activity - the number of cells is equal to the control of growth, 0-40% cell inhibition)
- IC50 ([8]; Homo sapiens, A549, A-549, read-out: IC50 µg/ml approx): > 20 µg/mL
